Literature values, collected in US20120277719A1, “COATING COMPOSITIONS, METHODS AND COATED DEVICES” (MASSACHUSETTS INSTITUTE OF TECHNOLOGY, priority 2011, published 2012).

Details: reported

pKa: ~8.5
Compound: O=C(OC[C@H]1O[C@@H](OC(=O)c2cc(O)c(O)c(OC(=O)c3cc(O)c(O)c(O)c3)c2)[C@H](OC(=O)c2cc(O)c(O)c(OC(=O)c3cc(O)c(O)c(O)c3)c2)[C@@H](OC(=O)c2cc(O)c(O)c(OC(=O)c3cc(O)c(O)c(O)c3)c2)[C@@H]1OC(=O)c1cc(O)c(O)c(OC(=O)c2cc(O)c(O)c(O)c2)c1)c1cc(O)c(O)c(OC(=O)c2cc(O)c(O)c(O)c2)c1 [Tannic acid, tannic acid]
